Measurements as given in PubChem BioAssay (NCI).
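Interpolation was linear, between the two tested concentrations surrounding the appropriate level; five concentrations were tested over 48 hours in 96-well plates. GI50 marks 50% less growth. The concentration for full growth arrest is given as TGI.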

Key:
Assay in all cases: NCI anticancer screen, dose series, 48 h
HCT-116 colon = test system: HCT-116 colon
A549 NSCLC = test system: A549 NSCLC
SF-539 CNS = test system: SF-539 CNS
ACHN renal = test system: ACHN renal
EKVX NSCLC = test system: EKVX NSCLC
NCI-H522 lung = test system: NCI-H522 lung
UACC-62 melanoma = test system: UACC-62 melanoma
RXF 393 renal = test system: RXF 393 renal
MOLT-4 leukemia = test system: MOLT-4 leukemia
SK-MEL-2 melanoma = test system: SK-MEL-2 melanoma

SMILES: OCCCCC#Cc1ccccc1C#Cc1cnccn1
- GI50 (HCT-116 colon): 42.6 µM
- TGI (HCT-116 colon): > 100 µM
- GI50 (A549 NSCLC): 38.3 µM
- TGI (A549 NSCLC): > 100 µM
- GI50 (SF-539 CNS): 53.8 µM
- TGI (SF-539 CNS): > 100 µM
- GI50 (ACHN renal): 38.8 µM
- TGI (ACHN renal): > 100 µM
- GI50 (EKVX NSCLC): 36.5 µM
- TGI (EKVX NSCLC): 95.3 µM
- GI50 (NCI-H522 lung): 24.5 µM
- TGI (NCI-H522 lung): 63.7 µM
- GI50 (UACC-62 melanoma): 21.2 µM
- TGI (UACC-62 melanoma): > 100 µM
- GI50 (RXF 393 renal): 15 µM
- TGI (RXF 393 renal): 54.2 µM
- GI50 (MOLT-4 leukemia): 29.8 µM
- TGI (MOLT-4 leukemia): > 100 µM
- GI50 (SK-MEL-2 melanoma): 70.7 µM
- TGI (SK-MEL-2 melanoma): > 100 µM

SMILES: COc1cc(C(=O)/C=C/c2c(C(F)(F)F)nc3sccn23)cc(OC)c1OC
- GI50 (HCT-116 colon): 1.01 µM
- TGI (HCT-116 colon): 2.19 µM
- GI50 (A549 NSCLC): 3.44 µM
- TGI (A549 NSCLC): 18 µM
- GI50 (SF-539 CNS): 1.55 µM
- TGI (SF-539 CNS): 2.96 µM
- GI50 (ACHN renal): 1.82 µM
- TGI (ACHN renal): 3.66 µM
- GI50 (EKVX NSCLC): 2.72 µM
- TGI (EKVX NSCLC): 10.7 µM
- GI50 (NCI-H522 lung): 2.03 µM
- TGI (NCI-H522 lung): 4.91 µM
- GI50 (UACC-62 melanoma): 1.52 µM
- TGI (UACC-62 melanoma): 2.95 µM
- GI50 (RXF 393 renal): 2.02 µM
- TGI (RXF 393 renal): 4.24 µM
- GI50 (MOLT-4 leukemia): 1.92 µM
- TGI (MOLT-4 leukemia): 5.81 µM
- GI50 (SK-MEL-2 melanoma): 2.26 µM
- TGI (SK-MEL-2 melanoma): 5.09 µM

SMILES: CN1C(=O)C23CC4=CC=CC(O)C4N2C(=O)C1(CO)SS3 (stereo not drawn)
- TGI (HCT-116 colon): 0.279 µM
- TGI (A549 NSCLC): 0.318 µM
- TGI (SF-539 CNS): 0.17 µM
- TGI (ACHN renal): 0.334 µM
- TGI (EKVX NSCLC): 1.33 µM
- TGI (NCI-H522 lung): 0.338 µM
- TGI (UACC-62 melanoma): 0.424 µM
- TGI (RXF 393 renal): 0.38 µM
- TGI (MOLT-4 leukemia): 0.447 µM
- TGI (SK-MEL-2 melanoma): 0.617 µM

SMILES: COC1C(CO)OC(n2c3ccccc3c3c4c(c5c6ccccc6[nH]c5c32)C(=O)NC4=O)C(O)C1OC(=O)C(N)CCCCN (stereo not drawn)
- GI50 (A549 NSCLC): 3.27 µM
- TGI (A549 NSCLC): > 50 µM
- GI50 (SF-539 CNS): 0.165 µM
- TGI (SF-539 CNS): 0.821 µM
- GI50 (ACHN renal): 0.713 µM
- TGI (ACHN renal): 3.51 µM
- GI50 (EKVX NSCLC): 1.69 µM
- TGI (EKVX NSCLC): 8.86 µM
- GI50 (NCI-H522 lung): 0.168 µM
- TGI (NCI-H522 lung): 3.55 µM
- GI50 (UACC-62 melanoma): 0.283 µM
- TGI (UACC-62 melanoma): 1.3 µM
- GI50 (RXF 393 renal): 2.44 µM
- TGI (RXF 393 renal): 14.8 µM
- GI50 (MOLT-4 leukemia): 0.178 µM
- TGI (MOLT-4 leukemia): > 50 µM
- GI50 (SK-MEL-2 melanoma): 1.93 µM
- TGI (SK-MEL-2 melanoma): 9.91 µM

SMILES: O=C(OCc1nc2ccc(Br)cc2c(=O)n1-c1ccccc1)c1ccccc1O
- TGI (HCT-116 colon): > 100 µM
- TGI (A549 NSCLC): > 100 µM
- TGI (SF-539 CNS): > 100 µM
- TGI (ACHN renal): > 100 µM
- TGI (EKVX NSCLC): > 100 µM
- TGI (NCI-H522 lung): > 100 µM
- TGI (UACC-62 melanoma): > 100 µM
- TGI (RXF 393 renal): > 100 µM
- TGI (MOLT-4 leukemia): > 100 µM
- TGI (SK-MEL-2 melanoma): > 100 µM

SMILES: COc1ccccc1NC(=O)C(=O)C1C(=O)Nc2ccccc2S1=O (stereo not drawn)
- TGI (HCT-116 colon): > 100 µM
- TGI (A549 NSCLC): > 100 µM
- TGI (SF-539 CNS): > 100 µM
- TGI (ACHN renal): > 100 µM
- TGI (EKVX NSCLC): > 100 µM
- TGI (NCI-H522 lung): > 100 µM
- TGI (UACC-62 melanoma): > 100 µM
- TGI (RXF 393 renal): > 100 µM
- TGI (MOLT-4 leukemia): > 100 µM
- TGI (SK-MEL-2 melanoma): > 100 µM

SMILES: C=CC[PH+](c1ccccc1)c1ccccc1.C=CC[PH+](c1ccccc1)c1ccccc1.[Cl][Pt][Cl]
- GI50 (HCT-116 colon): 3.2 µM
- TGI (HCT-116 colon): 10.6 µM
- GI50 (A549 NSCLC): 21.8 µM
- TGI (A549 NSCLC): > 100 µM
- GI50 (SF-539 CNS): 13.2 µM
- TGI (SF-539 CNS): 26.3 µM
- GI50 (ACHN renal): 3.73 µM
- TGI (ACHN renal): 12.9 µM
- GI50 (EKVX NSCLC): 13 µM
- TGI (EKVX NSCLC): 27.4 µM
- GI50 (NCI-H522 lung): 2.68 µM
- TGI (NCI-H522 lung): 8.19 µM
- GI50 (UACC-62 melanoma): 5.88 µM
- TGI (UACC-62 melanoma): 19.5 µM
- GI50 (RXF 393 renal): 3.33 µM
- TGI (RXF 393 renal): 9.82 µM
- GI50 (MOLT-4 leukemia): 3.11 µM
- TGI (MOLT-4 leukemia): 14 µM
- GI50 (SK-MEL-2 melanoma): 18.3 µM
- TGI (SK-MEL-2 melanoma): 40.4 µM

SMILES: N#CC1(C#N)C2C=CC(C3CCC=C32)C1(C#N)C#N (stereo not drawn)
- TGI (HCT-116 colon): > 10 µM
- TGI (A549 NSCLC): > 10 µM
- TGI (SF-539 CNS): > 10 µM
- TGI (ACHN renal): > 10 µM
- TGI (EKVX NSCLC): > 10 µM
- TGI (NCI-H522 lung): > 7.9 µM
- TGI (UACC-62 melanoma): > 10 µM
- TGI (RXF 393 renal): > 10 µM
- TGI (MOLT-4 leukemia): 6.52 µM
- TGI (SK-MEL-2 melanoma): > 10 µM
